Measured values from publication PMC9221546, “New Phenylglycinamide Derivatives with Hybrid Structure as Candidates for New Broad-Spectrum Anticonvulsants” (Cells, 2022).
Like-named read-outs stand apart in the source and are kept apart here.

Columns and labels:
mice = assay: Grip strength test (neuromuscular strength); format: in vivo; settings: 50 mg/kg i.p., 0.5 h
Description: In studies assessing the acute effect of compounds 53 and 60 on the ivPTZ seizure threshold and neuromuscular strength, compounds 53 and 60 was suspended in a 1% solution of Tween 80 and administered i.p., at a dose of 10 mL/kg body weight. Each experimental group consisted of 9–12 animals (ivPTZ seizure threshold test) or 9−10 animals (grip strength test). The timed ivPTZ test was employed to evaluate the acute effect of compounds 53 and 60 on the seizure thresholds for (1) the first myoclonic twitch, (2) generalized clonic seizure with loss of righting reflex, and (3) forelimb tonus. The experimental procedure of the timed ivPTZ test was described in detail elsewhere. The acute effect of compounds 53 and 60 on neuromuscular strength was quantified using the grip-strength apparatus (BIOSEB, Chaville, France) according to the method that is described elsewhere. The results are depicted in Figure 2 (ivPTZ seizure threshold test, see Section 3 Results and Discussion) and Figure 3 (grip strength test, see Section 3 Results and Discussion).
Figure 3 Acute effects of 53 and 60 on the neuromuscular strength in mice. Compounds 53 and 60 were administered i.p. 0.5 h before the seizure test. Control animals received vehicle only. Each experimental group consisted of 9–10 animals. Each bar represents the mean + SEM grip strengths in millinewtons per gram of mouse body weight (mN/g).

TRPV1 (VR1) (h) [1] = target: T1, TRPV1 (VR1) (h) (Homo sapiens, UniProt Q8NER1); assay: TRPV1 (VR1) (h) antagonist effect functional assay; format: cell-based; settings: human recombinant CHO cells
T1 construct: host or cells: CHO

[2] = target: T2, Cav1.2 (h) calcium ion channel (Homo sapiens, UniProt Q13936); assay: Cav1.2 (h) calcium ion channel cell-based antagonist calcium flux assay; settings: HEK293, human recombinant HEK-293 cell, read-out: % Inhibition of control agonist response, Cav1.2 calcium flux
T2 construct: Eurofins
Description: Binding/functional studies were carried out commercially in Eurofins Laboratories (Poitiers, France) and Eurofins Panlabs Discovery Services Taiwan, Ltd. (New Taipei City, Taiwan) using testing procedures that were reported previously (for details see Table S2).
Table S2. Radioligand binding and functional assays. […]
TRPV1 (VR1) (h) (antagonist effect)
Cav1.2 (L-type) (h) calcium ion channel cell-based antagonist calcium flux assay
Assays were performed commercially in Eurofins Laboratories (Poitiers, France) or Eurofins Panlabs Discovery
Services Taiwan, Ltd. (New Taipei City, Taiwan). […]

[3] = test system: 6 Hz (44 mA) seizures in mice; assay: 6 Hz (44 mA) seizure model of drug-resistant epilepsy; format: in vivo; settings: Mus musculus, ip, pretreatment time 0.5 h, (95% confidence limits)
Description: Adult male Albino Swiss mice that weighed between 22 and 26 g were used in the in vivo studies. They were housed under standardized housing conditions in colony cages and had free access to food as well as tap water. The animals were left to adapt under laboratory conditions for 7 days. All procedures involving animals and their care were performed in accordance with the current European Community and Polish legislation on animal experimentation.
In the initial screening studies, four mice per group were randomly assigned to each experimental group (each mouse was used only once). To evaluate the ED50 or TD50 values, 3–4 groups that consisted of eight animals were injected with various doses of tested compounds. The protective indexes (PIs) for the compounds that were investigated and reference ASDs were calculated by dividing the TD50 value, as determined in the chimney test (or rotarod test), by the respective ED50 value, as determined in the MES, scPTZ, or 6 Hz (32 mA or 44 mA) tests (PI = TD50/ED50). The PIs is a measure of the potential therapeutic window of the tested agent.
All substances were suspended in Tween 80 (1% aqueous solution) and administered i.p. as a single injection at a dose of 10 mL/kg. […]
Taking into consideration the potent protection of 53 and 60 in the 6 Hz (32 mA) seizure model, these compounds were also evaluated by applying a higher current intensity of 44 mA. […]

hepatoma HepG2 cell line = assay: Hepatotoxicity, HepG2 viability (MTS); format: cell-based; settings: 72 h treatment
Description: Figure 7 The effect of 53, 60, and 62, cytostatic drug doxorubicin (DX) and the mitochondrial toxin CCCP on the hepatoma HepG2 cell line viability after 72 h of incubation at 37 °C, 5% CO2. The data were analyzed with one-way ANOVA, followed by Bonferroni’s Comparison Test (Graph Pad Prism 8.0.1 software, San Diego, CA, USA)): ** p < 0.01, **** p < 0.0001 vs. negative control (DMSO 1% in growth media).

[4] = test system: 6 Hz (32 mA) seizures in mice; assay: 6 Hz (32 mA) psychomotor seizure model; format: in vivo; settings: Mus musculus, ip; for responders at 100 mg/kg: 100 mg/kg i.p., 0.5 h; for ED50: mice, pretreatment time 0.5 h, (95% confidence limits)
Procedure, shortened: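 Adult male Albino Swiss mice (22–26 g), compounds suspended in 1% aqueous Tween 80, single i.p. injection, tested 0.5 h post-dose. Screening at 100 mg/kg with four mice per group; ED50 from 3–4 groups of eight. PI = TD50 (chimney test) / ED50.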

TRPV1 (VR1) (h) [5] = target: T1, TRPV1 (VR1) (h); assay: TRPV1 (VR1) (h) antagonist effect functional assay; format: cell-based; settings: human recombinant CHO cells, read-out: % Inhibition of control agonist response, TRPV1 (antagonist effect)
Procedure, shortened: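 Commercial Eurofins radioligand binding and functional panel: [3H]GABA agonist binding for GABAA, antagonist radioligand binding for GABA transporter, cell-based calcium flux antagonist assay for human Cav1.2. TRPV1 antagonism measured in human recombinant CHO cells at 100 µM as % inhibition of control agonist response.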

[6] = four mice, read-out: protection in 6 Hz (32 mA) screening
[7] = read-out: 6 Hz (32 mA) screening: number of mice protected/number of mice tested (converted)

T1 sequence (Q8NER1 whole entry): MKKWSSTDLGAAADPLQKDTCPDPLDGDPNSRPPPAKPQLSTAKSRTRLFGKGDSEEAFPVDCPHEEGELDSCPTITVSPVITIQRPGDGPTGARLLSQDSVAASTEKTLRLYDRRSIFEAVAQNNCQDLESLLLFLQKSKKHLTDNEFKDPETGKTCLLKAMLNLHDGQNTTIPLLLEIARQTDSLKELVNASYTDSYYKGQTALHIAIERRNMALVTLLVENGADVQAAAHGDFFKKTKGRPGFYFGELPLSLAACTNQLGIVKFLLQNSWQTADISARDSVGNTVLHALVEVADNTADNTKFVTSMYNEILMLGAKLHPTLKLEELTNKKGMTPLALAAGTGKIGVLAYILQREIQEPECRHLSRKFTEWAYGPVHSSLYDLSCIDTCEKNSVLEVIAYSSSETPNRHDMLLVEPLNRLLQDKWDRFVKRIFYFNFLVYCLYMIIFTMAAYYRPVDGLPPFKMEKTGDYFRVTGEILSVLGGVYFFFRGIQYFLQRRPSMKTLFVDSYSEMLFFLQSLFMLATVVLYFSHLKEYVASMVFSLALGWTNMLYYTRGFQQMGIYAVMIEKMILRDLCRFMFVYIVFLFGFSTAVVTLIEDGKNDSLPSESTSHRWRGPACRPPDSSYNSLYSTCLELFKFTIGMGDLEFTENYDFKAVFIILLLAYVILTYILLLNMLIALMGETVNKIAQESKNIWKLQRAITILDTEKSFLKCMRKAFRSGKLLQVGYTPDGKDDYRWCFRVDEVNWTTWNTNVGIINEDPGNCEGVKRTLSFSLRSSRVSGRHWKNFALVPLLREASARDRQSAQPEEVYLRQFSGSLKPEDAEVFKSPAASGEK
T2 sequence (Q13936 whole entry): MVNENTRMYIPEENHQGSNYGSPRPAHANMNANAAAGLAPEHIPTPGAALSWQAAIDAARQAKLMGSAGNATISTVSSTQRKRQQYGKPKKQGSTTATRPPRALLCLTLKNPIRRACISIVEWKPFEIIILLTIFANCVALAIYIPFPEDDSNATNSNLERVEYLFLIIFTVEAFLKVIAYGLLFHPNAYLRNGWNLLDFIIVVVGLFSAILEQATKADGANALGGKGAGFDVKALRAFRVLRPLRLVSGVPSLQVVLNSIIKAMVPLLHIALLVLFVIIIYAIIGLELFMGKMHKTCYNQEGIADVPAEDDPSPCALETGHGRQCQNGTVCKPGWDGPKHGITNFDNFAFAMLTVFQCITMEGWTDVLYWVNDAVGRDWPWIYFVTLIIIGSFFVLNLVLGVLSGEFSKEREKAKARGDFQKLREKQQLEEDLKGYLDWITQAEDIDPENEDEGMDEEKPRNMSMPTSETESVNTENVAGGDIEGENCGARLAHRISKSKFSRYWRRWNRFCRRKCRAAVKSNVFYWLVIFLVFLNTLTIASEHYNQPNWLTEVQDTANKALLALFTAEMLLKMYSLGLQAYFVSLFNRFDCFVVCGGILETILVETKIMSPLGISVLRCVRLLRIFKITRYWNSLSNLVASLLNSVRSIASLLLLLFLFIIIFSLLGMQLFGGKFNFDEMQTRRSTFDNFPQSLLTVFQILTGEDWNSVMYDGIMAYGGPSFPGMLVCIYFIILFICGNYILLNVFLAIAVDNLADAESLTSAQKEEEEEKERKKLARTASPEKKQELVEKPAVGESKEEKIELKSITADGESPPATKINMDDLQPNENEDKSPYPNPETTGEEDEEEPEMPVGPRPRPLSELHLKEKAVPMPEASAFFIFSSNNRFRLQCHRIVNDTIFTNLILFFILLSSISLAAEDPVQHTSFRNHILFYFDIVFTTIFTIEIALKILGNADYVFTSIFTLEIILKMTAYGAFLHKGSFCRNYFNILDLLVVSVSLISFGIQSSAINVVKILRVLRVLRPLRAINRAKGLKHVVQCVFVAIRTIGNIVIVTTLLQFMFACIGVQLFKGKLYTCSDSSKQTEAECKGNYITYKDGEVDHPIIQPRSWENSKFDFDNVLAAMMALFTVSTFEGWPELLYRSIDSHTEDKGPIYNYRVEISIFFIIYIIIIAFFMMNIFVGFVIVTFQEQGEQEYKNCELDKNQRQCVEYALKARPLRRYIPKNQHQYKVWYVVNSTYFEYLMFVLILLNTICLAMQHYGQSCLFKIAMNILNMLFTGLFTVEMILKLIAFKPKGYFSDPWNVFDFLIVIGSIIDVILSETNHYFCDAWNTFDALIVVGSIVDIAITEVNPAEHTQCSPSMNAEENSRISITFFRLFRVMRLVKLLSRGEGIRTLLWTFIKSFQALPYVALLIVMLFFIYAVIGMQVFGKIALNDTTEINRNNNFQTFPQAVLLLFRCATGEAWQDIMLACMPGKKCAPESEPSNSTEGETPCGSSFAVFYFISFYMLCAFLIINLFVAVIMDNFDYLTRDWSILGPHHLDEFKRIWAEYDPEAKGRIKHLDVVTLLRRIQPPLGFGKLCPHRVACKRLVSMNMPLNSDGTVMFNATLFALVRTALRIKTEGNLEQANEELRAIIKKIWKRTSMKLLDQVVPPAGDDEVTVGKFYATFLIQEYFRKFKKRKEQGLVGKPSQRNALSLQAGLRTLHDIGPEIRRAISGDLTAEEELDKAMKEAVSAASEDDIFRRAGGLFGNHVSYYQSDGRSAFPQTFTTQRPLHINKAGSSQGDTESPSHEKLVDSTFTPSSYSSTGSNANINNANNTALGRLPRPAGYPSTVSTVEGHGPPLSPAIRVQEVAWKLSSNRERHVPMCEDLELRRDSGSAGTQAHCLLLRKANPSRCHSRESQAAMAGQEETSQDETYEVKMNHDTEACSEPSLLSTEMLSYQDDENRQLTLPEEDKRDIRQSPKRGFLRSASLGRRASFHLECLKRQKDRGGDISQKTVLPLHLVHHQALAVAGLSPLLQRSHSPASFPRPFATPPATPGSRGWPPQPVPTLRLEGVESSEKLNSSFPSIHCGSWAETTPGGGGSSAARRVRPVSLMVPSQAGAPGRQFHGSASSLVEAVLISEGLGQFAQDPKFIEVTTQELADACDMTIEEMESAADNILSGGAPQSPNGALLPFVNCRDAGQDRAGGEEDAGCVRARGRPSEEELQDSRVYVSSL
T2 sequence (Q08289 whole entry partner): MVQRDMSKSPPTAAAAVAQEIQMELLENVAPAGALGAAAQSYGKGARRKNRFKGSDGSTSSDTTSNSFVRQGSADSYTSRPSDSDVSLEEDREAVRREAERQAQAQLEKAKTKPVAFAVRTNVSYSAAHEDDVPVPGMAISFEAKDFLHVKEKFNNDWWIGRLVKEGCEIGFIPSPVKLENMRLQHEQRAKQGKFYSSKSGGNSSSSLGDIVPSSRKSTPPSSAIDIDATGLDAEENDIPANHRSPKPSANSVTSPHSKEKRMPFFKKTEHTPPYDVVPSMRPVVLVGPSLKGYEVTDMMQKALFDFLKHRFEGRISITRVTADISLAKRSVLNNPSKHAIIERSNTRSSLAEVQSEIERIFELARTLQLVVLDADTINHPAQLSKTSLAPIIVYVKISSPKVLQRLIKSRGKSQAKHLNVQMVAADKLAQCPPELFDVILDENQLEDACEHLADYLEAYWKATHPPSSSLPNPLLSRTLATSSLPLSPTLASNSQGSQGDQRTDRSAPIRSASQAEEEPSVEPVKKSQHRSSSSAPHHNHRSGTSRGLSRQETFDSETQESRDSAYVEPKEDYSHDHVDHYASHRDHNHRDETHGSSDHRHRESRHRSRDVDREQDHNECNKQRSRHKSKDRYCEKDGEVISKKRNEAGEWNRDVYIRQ
T2 sequence (P54289 25-956 partner limits assumed): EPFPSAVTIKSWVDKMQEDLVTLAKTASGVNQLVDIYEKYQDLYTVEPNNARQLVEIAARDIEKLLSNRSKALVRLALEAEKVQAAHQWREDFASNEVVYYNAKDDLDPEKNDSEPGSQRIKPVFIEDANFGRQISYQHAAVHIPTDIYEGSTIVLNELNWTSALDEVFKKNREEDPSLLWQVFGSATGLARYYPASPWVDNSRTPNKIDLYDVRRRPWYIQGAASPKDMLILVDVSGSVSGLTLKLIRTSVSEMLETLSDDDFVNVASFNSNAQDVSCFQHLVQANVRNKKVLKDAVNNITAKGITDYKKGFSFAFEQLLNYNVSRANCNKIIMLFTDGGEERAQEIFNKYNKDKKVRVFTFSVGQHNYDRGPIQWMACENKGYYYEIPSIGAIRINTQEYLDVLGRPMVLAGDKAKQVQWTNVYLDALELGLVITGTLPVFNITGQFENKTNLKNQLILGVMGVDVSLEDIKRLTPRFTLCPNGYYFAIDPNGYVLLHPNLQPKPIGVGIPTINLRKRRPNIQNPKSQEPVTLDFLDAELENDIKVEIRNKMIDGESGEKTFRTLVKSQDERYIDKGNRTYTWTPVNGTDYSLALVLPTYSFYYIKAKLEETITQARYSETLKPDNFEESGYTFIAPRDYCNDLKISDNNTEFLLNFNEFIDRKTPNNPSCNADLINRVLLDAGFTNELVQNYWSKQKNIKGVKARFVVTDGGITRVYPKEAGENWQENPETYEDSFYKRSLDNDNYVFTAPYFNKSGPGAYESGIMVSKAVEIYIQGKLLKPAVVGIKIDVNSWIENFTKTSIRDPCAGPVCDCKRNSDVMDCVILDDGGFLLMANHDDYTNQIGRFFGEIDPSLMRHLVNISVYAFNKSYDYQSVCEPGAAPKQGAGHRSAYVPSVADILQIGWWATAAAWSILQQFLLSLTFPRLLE
T2 sequence (P54289 957-1103 partner limits assumed): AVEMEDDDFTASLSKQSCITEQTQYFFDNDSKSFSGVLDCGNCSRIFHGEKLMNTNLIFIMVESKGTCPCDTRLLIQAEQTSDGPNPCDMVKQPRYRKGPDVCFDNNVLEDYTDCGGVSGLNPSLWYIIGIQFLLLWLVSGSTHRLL

| effect on neuromuscular strength (grip strength) (mice) | IC50 (TRPV1 (VR1) (h) [1]) [µM] | Kb (TRPV1 (VR1) (h) [1]) [µM] | inhibition at 100 µM (TRPV1 (VR1) (h) [5]) [%] | Structure (SMILES) | inhibition at 10 µM [2] [%] | ED50 [3] [mg/kg] | effect on HepG2 cell viability (hepatotoxicity) (hepatoma HepG2 cell line) | responders at 100 mg/kg [4, 6] [%] | responders at 100 mg/kg [4, 7] [%] | ED50 [4] [mg/kg] |
| --- | --- | --- | --- | --- | --- | --- | --- | --- | --- | --- |
| did not significantly affect | 13 | 1.7 | 128 | CC(=O)NC(C(=O)N1CCN(c2cccc(C(F)(F)F)c2)CC1)c1ccccc1 (centres unmarked) [Compound 53, N-(2-oxo-1-phenyl-2-(4-(3-(trifluoromethyl)phenyl)piperazin-1-yl)ethyl)acetamide] | 55 | 68 | observed only at 100 µM | 100 | 100 | 29.9 |
| did not significantly affect | 11 | 1.5 | 110 | CC(=O)NC(C(=O)N1CCN(c2cccc(OC(F)(F)F)c2)CC1)c1ccccc1 (centres unmarked) [Compound 60, N-(2-oxo-1-phenyl-2-(4-(3-(trifluoromethoxy)phenyl)piperazin-1-yl)ethyl)acetamide] | 31 | 56.3 | observed only at 100 µM | 100 | 100 | 24.6 |
